Data as given in ChEMBL document CHEMBL5291721, “A preclinical secondary pharmacology resource illuminates target-adverse drug reaction associations of marketed drugs” (Nat Commun, 2023).

Columns and labels:
Acetylcholinesterase = Acetylcholinesterase (Homo sapiens, UniProt P22303); type: functional
[1] = target: T1, Alpha-1A adrenergic receptor (Homo sapiens, UniProt P35348); type: functional, cell-based
T1 sequence (P35348 whole entry): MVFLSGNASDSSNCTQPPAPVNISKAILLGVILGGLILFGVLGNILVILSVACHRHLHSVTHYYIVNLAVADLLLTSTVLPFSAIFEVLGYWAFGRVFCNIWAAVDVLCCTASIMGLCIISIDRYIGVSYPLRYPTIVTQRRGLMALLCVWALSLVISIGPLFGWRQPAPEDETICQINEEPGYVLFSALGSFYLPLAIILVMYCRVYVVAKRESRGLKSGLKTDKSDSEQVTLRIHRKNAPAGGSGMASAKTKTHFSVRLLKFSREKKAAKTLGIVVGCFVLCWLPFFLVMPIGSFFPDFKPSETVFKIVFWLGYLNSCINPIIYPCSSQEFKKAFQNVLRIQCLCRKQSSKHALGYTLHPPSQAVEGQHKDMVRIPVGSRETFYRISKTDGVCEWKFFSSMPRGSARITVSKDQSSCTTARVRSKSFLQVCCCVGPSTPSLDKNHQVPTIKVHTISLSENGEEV

[2] = target: T2, Muscarinic acetylcholine receptor M1 (Homo sapiens, UniProt P11229); type: functional, cell-based
T2 sequence (P11229 whole entry): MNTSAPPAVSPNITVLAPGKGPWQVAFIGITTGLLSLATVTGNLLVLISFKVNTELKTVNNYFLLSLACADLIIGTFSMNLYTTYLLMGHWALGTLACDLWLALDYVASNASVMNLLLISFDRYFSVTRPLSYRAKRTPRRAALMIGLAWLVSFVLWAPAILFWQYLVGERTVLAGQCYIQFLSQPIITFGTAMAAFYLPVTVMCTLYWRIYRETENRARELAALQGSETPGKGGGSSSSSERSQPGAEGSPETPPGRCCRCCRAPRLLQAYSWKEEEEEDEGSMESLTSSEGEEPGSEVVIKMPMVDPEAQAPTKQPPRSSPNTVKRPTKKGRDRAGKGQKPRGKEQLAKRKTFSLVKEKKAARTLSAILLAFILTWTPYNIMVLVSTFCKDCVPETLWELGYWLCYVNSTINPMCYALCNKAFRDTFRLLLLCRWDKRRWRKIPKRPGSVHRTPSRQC

[3] = target: T3, Muscarinic acetylcholine receptor M2 (Homo sapiens, UniProt P08172)
T3 sequence (P08172 whole entry): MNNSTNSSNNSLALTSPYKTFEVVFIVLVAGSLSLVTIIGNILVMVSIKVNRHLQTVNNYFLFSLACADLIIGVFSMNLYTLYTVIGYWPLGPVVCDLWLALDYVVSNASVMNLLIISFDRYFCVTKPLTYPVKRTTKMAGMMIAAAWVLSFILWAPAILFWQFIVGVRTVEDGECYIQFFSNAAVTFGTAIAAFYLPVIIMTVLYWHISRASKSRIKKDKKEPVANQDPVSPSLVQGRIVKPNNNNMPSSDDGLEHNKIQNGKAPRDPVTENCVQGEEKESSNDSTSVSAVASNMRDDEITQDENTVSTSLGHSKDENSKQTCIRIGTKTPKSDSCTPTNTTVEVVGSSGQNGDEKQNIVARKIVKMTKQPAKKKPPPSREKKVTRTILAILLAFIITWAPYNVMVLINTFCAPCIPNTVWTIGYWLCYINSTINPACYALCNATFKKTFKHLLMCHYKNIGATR

D(1A) dopamine receptor = D(1A) dopamine receptor (Homo sapiens, UniProt P21728)
D(3) dopamine receptor = D(3) dopamine receptor (Homo sapiens, UniProt P35462)
Estrogen receptor = target: T4, Estrogen receptor (Homo sapiens, UniProt P03372)
T4 sequence (P03372 whole entry): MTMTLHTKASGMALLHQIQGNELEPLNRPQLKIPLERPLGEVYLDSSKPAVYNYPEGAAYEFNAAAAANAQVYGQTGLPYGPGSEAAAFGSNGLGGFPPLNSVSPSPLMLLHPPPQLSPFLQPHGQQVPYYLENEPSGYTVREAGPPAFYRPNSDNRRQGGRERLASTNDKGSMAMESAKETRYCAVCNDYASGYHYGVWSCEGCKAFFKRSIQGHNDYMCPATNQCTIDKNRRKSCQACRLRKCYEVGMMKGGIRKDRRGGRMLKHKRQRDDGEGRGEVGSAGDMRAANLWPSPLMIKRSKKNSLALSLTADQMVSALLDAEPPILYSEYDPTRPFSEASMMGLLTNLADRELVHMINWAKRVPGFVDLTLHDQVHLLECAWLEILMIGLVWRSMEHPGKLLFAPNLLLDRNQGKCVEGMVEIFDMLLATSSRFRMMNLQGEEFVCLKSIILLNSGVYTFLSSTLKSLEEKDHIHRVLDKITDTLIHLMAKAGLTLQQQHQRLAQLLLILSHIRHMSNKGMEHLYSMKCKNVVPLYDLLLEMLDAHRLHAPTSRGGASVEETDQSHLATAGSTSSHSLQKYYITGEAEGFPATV

[4] = target: 5-hydroxytryptamine receptor 2B (Homo sapiens, UniProt P41595); type: functional, cell-based
[5] = target: Voltage-gated inwardly rectifying potassium channel KCNH2 (Homo sapiens, UniProt Q12809); type: functional; conditions: read-out: AC50
[6] = target: Vascular endothelial growth factor receptor 2 (Homo sapiens, UniProt P35968); type: functional
Mu-type opioid receptor = Mu-type opioid receptor (Homo sapiens, UniProt P35372)
Thromboxane A2 receptor = target: T5, Thromboxane A2 receptor (Homo sapiens, UniProt P21731); type: functional, cell-based
T5 sequence (P21731 whole entry): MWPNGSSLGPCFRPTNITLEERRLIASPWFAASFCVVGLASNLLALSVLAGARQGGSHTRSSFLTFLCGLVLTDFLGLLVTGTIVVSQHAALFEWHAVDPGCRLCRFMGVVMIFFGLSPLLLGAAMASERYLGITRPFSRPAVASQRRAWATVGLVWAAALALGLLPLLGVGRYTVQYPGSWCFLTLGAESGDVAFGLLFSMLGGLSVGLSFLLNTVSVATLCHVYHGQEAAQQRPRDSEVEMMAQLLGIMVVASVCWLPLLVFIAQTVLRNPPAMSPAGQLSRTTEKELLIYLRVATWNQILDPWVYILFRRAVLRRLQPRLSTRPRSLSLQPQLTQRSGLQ
Further: assay procedure not described here.

Chain of D(1A) dopamine receptor (P21728 whole entry): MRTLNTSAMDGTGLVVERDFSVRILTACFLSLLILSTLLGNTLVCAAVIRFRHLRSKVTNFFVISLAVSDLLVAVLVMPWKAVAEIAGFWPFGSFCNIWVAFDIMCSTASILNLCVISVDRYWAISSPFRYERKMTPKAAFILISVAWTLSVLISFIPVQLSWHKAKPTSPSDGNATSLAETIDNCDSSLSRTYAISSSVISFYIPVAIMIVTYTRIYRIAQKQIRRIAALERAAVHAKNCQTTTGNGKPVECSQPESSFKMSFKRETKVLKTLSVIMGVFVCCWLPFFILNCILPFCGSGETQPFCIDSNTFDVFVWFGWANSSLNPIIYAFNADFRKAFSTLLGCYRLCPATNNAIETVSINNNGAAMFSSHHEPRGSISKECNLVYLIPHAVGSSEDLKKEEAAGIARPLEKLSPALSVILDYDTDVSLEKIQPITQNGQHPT
Chain of Mu-type opioid receptor (P35372 whole entry): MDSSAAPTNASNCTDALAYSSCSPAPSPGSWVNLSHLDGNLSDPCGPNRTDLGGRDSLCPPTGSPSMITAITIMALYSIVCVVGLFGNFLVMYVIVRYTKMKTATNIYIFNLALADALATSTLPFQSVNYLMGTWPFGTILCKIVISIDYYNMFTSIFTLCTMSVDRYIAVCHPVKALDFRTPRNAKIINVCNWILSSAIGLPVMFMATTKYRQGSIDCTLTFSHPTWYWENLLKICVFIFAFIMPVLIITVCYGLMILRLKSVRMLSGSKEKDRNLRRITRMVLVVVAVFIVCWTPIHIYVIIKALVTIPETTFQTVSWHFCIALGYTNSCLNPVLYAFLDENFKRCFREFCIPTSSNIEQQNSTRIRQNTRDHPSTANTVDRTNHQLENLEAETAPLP
Chain of Vascular endothelial growth factor receptor 2 (P35968 whole entry): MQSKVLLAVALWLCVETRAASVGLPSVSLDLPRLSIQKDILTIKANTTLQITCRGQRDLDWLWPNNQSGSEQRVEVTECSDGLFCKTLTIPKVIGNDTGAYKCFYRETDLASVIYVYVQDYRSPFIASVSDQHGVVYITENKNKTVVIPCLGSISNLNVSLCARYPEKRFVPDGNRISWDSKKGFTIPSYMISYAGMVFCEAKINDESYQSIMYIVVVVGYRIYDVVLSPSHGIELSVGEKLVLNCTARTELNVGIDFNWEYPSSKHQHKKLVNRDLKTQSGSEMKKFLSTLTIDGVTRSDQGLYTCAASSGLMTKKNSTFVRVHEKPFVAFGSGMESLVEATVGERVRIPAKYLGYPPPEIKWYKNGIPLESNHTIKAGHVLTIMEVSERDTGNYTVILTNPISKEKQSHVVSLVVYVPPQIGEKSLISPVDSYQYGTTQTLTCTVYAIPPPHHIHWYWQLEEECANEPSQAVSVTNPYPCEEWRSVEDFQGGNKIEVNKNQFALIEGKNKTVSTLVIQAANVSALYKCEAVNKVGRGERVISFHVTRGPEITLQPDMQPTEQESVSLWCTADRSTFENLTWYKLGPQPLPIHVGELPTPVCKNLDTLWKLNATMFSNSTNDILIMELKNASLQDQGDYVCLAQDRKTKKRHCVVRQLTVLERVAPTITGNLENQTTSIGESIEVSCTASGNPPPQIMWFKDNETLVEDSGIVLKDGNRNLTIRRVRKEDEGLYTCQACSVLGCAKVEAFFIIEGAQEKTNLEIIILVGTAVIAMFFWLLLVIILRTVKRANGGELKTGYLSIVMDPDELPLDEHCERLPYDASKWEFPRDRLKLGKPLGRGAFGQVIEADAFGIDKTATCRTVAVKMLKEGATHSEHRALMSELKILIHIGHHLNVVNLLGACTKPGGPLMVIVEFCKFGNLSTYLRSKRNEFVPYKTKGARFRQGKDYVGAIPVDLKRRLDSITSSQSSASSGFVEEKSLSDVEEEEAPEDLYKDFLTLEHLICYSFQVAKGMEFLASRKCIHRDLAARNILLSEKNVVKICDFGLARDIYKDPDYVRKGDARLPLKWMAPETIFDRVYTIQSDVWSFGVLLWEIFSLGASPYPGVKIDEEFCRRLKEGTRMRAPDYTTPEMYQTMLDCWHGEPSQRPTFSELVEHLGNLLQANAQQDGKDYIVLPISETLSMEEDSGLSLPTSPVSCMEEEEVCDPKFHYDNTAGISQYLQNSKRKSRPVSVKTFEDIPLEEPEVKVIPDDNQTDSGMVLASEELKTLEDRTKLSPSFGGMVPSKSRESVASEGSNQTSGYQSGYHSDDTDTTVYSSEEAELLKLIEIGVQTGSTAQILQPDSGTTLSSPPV
Chain of Voltage-gated inwardly rectifying potassium channel KCNH2 (Q12809 whole entry): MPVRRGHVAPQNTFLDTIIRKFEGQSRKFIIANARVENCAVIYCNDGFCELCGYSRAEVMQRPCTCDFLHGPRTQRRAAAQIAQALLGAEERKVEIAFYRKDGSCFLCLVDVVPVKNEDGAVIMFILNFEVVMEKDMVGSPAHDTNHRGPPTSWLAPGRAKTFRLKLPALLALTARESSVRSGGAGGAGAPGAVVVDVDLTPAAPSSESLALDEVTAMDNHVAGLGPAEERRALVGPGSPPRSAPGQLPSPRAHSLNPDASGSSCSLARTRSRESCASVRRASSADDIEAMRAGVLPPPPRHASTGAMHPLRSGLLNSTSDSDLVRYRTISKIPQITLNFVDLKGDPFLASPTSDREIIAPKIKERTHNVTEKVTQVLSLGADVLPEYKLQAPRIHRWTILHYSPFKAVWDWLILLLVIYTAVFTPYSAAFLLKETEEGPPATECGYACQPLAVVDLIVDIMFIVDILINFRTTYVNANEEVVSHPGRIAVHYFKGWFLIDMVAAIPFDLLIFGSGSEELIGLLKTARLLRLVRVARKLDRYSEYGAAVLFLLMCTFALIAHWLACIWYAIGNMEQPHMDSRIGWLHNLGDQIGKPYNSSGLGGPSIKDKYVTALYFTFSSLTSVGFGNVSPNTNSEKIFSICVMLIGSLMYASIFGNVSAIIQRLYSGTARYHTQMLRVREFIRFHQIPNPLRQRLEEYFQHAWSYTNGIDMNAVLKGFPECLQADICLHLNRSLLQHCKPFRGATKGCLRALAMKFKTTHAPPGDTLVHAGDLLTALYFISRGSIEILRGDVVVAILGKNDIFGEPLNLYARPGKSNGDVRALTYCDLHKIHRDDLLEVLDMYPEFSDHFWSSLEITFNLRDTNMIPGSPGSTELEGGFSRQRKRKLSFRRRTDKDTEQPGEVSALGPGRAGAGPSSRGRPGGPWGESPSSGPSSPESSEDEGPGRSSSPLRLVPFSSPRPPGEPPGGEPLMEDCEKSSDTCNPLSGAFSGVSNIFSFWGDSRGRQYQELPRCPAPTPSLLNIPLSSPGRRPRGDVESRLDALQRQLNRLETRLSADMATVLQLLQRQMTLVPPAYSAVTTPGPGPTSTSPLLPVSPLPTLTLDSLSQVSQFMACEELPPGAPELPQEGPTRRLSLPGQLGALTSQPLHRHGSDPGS
Chain of D(3) dopamine receptor (P35462 whole entry): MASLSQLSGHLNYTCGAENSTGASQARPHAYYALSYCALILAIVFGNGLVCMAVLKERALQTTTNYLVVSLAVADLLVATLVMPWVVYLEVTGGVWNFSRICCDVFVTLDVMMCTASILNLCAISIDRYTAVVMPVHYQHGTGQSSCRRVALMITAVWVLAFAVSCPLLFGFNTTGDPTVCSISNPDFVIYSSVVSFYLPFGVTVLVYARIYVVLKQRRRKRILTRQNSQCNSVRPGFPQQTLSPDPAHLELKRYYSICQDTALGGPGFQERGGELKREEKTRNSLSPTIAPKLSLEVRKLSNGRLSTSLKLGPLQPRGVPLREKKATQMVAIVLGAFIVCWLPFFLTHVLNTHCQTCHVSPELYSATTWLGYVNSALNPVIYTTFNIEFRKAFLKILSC
Chain of 5-hydroxytryptamine receptor 2B (P41595 whole entry): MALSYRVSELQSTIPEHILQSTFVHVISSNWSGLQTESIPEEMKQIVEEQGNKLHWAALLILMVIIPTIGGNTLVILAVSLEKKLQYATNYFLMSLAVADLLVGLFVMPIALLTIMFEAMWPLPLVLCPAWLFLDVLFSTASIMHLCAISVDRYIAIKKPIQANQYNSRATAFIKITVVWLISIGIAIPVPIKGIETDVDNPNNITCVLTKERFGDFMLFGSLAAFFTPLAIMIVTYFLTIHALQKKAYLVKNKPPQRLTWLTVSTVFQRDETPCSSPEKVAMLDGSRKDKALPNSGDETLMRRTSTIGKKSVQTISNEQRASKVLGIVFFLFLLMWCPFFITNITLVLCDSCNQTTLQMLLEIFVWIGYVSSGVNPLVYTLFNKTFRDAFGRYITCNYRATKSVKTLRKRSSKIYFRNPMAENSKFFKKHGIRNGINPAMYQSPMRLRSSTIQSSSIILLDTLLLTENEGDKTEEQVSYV
Chain of Acetylcholinesterase (P22303 whole entry): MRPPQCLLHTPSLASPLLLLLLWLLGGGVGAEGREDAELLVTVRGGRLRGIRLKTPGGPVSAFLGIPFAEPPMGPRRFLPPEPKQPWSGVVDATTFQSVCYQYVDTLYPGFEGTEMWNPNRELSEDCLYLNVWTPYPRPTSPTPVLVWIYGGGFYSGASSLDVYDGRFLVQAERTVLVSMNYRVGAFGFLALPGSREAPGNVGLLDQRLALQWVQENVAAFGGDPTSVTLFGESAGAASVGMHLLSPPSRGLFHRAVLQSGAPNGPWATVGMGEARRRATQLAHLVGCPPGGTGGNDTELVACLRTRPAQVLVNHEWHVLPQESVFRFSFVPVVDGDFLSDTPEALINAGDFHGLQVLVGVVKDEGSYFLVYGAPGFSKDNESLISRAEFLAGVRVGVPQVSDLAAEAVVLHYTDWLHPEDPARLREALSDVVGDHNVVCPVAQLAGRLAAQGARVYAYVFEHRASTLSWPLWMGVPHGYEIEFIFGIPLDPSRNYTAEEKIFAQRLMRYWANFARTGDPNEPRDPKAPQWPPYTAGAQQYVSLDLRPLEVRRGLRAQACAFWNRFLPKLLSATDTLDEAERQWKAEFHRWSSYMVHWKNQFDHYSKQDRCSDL

Compound	AC50 (Acetylcholinesterase) [µM]	AC50 [1] [µM]	AC50 [2] [µM]	AC50 [3] [µM]	AC50 (D(1A) dopamine receptor) [µM]	AC50 (D(3) dopamine receptor) [µM]	AC50 (Estrogen receptor) [µM]	AC50 [4] [µM]	AC50 [5] [µM]	AC50 [6] [µM]	AC50 (Mu-type opioid receptor) [µM]	AC50 (Thromboxane A2 receptor) [µM]
CCOc1ccccc1OCC1CNCCO1 (configuration not stated) [VILOXAZINE]	> 30	> 30	> 30	> 30	> 30	> 30	> 30	> 30	> 30	> 30	> 30	> 30
CCN(CC)CCNc1ccc(CO)c2sc3ccccc3c(=O)c12 [HYCANTHONE]	> 30	1.4	> 30	4.47	> 30	19.5	> 30	> 30	3.6	> 30	23	> 30
CCOC(=O)/C=C1\SC(N2CCCCC2)C(=O)N1C (configuration not stated) [ETOZOLIN]	> 30	> 30	> 30	> 30	> 30	> 30	> 30	> 30	> 30	> 30	> 30	> 30
CC(=O)[C@@]1(O)CC[C@H]2[C@@H]3C=C(C)C4=CC(=O)CC[C@]4(C)[C@H]3CC[C@@]21C	> 30	> 30	> 30	> 30	> 30	> 30	> 30	> 30	> 30	> 30	> 30	> 30
CCCCOC(=O)C(=O)[C@H]1[C@H](C)C[C@H]2[C@@H]3C[C@H](F)C4=CC(=O)C=C[C@]4(C)[C@H]3[C@@H](O)C[C@@]21C [FLUOCORTIN BUTYL]	> 30	13.1	> 30	> 30	> 30	> 30	> 30	> 30	16	> 30	> 30	> 30
CCC(C)(C)c1ccc(CC(C)CN2C[C@@H](C)O[C@@H](C)C2)cc1 (some centres not stated) [AMOROLFINE]	> 30	> 30	> 30	> 30	> 30	22	> 30	> 30	11	> 30	> 30	> 30
CCCNC(C)C(=O)Nc1c(C)csc1C(=O)OC (configuration not stated) [ARTICAINE]	> 30	> 30	> 30	> 30	> 30	> 30	> 30	> 30	> 30	> 30	> 30	> 30
CC(=O)OCC1=C(C(=O)O)N2C(=O)[C@@H](NC(=O)[C@H](N)c3ccccc3)[C@H]2SC1 [CEPHALOGLYCIN]	> 30	> 30	> 30	> 30	> 30	> 30	> 30	> 30	> 30	> 30	> 30	> 30
Clc1ccc(C(OCCN2CCCCC2)c2ccccc2)cc1 (configuration not stated) [CLOPERASTINE]	> 30	1.27	> 30	0.331	5.96	1.05	> 30	> 30	0.2	> 30	13.6	> 30
CC(C)COC(=O)OCN1C(=O)CN(CCN2CC(=O)N(COC(=O)OCC(C)C)C(=O)C2)CC1=O [SOBUZOXANE]	> 30	> 30	> 30	> 30	> 30	> 30	> 30	> 30	> 30	> 30	> 30	> 30
CC(C)(C)N1CCC(c2ccccc2)(c2ccccc2)CC1 [BUDIPINE]	> 30	> 30	> 30	0.301	> 30	> 30	> 30	> 30	6.5	> 30	12.6	> 30
